# Laboratory results as given in patent US11331299B2, “Medicinal use of serrulatane diterpenes” (The University of Sydney, priority 2016, dated 2022).
# Where two headings read alike, the source gives them in different places.
# System: 280 human cancer cell lines
# Assay: OncoPanel cell proliferation assay (10-day)
# Type: cell-based
# Details: Homo sapiens; for IC50: read-out: Cell Count IC50; for EC50: read-out: Cell Count EC50
# [1] = SW872, SW872, Soft Tissue - Sarcoma
# [2] = SW 954, SW954, Female GU - Vulva
# [3] = SW982, SW982, Soft Tissue - Sarcoma
# [4] = SW1353, SW1353, Soft Tissue - Osteosarcoma
# [5] = TE 125.T, Soft Tissue - Sarcoma
# [6] = TE 381.T, Soft Tissue - Sarcoma
# [7] = U2OS, Soft Tissue - Osteosarcoma
# [8] = U-118-MG, U-118 MG, CNS - Glioma
# [9] = VA-ES-BJ, Soft Tissue - Sarcoma
# [10] = WM 266-4, WM-266-4, Skin (Melanoma)
compound,measurement,setting,value
"CC(C)=CCC[C@H](C)[C@@H]1CC[C@@H](C)c2c1cc(C)c(O)c2O [Compound 4, 7,8-dihydroxyserrulat-14-ene]",GI50,"SW837, SW837, Colon, read-out: Cell Count GI50",18.7 µM
same,IC50,"SW837, SW837, Colon",18.9 µM
same,EC50,[1],4.39 µM
same,GI50,"SW872, SW872, Soft Tissue - Sarcoma, read-out: Cell Count GI50",4.38 µM
same,IC50,[1],4.39 µM
same,EC50,"SW900, SW900, Lung - SCLC",23.3 µM
same,GI50,"SW900, SW900, Lung - SCLC, read-out: Cell Count GI50",23.1 µM
same,IC50,"SW900, SW900, Lung - SCLC",23.3 µM
same,EC50,"SW948, SW948, Colon",29.7 µM
same,GI50,"SW948, SW948, Colon, read-out: Cell Count GI50",> 30 µM
same,IC50,"SW948, SW948, Colon",> 30 µM
same,EC50,[2],21.7 µM
same,GI50,"SW 954, SW954, Female GU - Vulva, read-out: Cell Count GI50",21.6 µM
same,IC50,[2],21.7 µM
same,EC50,[3],7.29 µM
same,GI50,"SW982, SW982, Soft Tissue - Sarcoma, read-out: Cell Count GI50",7.26 µM
same,IC50,[3],7.3 µM
same,EC50,"SW1088, SW1088, CNS - Glioma",8.77 µM
same,GI50,"SW1088, SW1088, CNS - Glioma, read-out: Cell Count GI50",8.69 µM
same,IC50,"SW1088, SW1088, CNS - Glioma",8.77 µM
same,EC50,[4],4.15 µM
same,GI50,"SW1353, SW1353, Soft Tissue - Osteosarcoma, read-out: Cell Count GI50",4.14 µM
same,IC50,[4],4.15 µM
same,EC50,"SW1417, SW1417, Colon",> 30 µM
same,GI50,"SW1417, SW1417, Colon, read-out: Cell Count GI50",29.3 µM
same,IC50,"SW1417, SW1417, Colon",> 30 µM
same,EC50,"SW1463, SW1463, Colon",29.4 µM
same,GI50,"SW1463, SW1463, Colon, read-out: Cell Count GI50",29.5 µM
same,IC50,"SW1463, SW1463, Colon",29.6 µM
same,EC50,"SW1783, SW1783, CNS - Glioma",12.3 µM
same,GI50,"SW1783, SW1783, CNS - Glioma, read-out: Cell Count GI50",12.1 µM
same,IC50,"SW1783, SW1783, CNS - Glioma",12.3 µM
same,EC50,"SW-403, SW403, Colon",> 30 µM
same,GI50,"SW-403, SW403, Colon, read-out: Cell Count GI50",> 30 µM
same,IC50,"SW-403, SW403, Colon",> 30 µM
same,EC50,"SW-620, SW620, Colon",11.3 µM
same,GI50,"SW-620, SW620, Colon, read-out: Cell Count GI50",11.3 µM
same,IC50,"SW-620, SW620, Colon",11.3 µM
same,EC50,"SiHa, Female GU - Cervix",11.3 µM
same,GI50,"SiHa, Female GU - Cervix, read-out: Cell Count GI50",13.2 µM
same,IC50,"SiHa, Female GU - Cervix",13.5 µM
same,EC50,"T24, Bladder",12.2 µM
same,GI50,"T24, Bladder, read-out: Cell Count GI50",12.2 µM
same,IC50,"T24, Bladder",12.2 µM
same,EC50,"T47D, Breast",3.28 µM
same,GI50,"T47D, Breast, read-out: Cell Count GI50",2.92 µM
same,IC50,"T47D, Breast",3.28 µM
same,EC50,"T98G, CNS - Glioma",24.5 µM
same,GI50,"T98G, CNS - Glioma, read-out: Cell Count GI50",24.5 µM
same,IC50,"T98G, CNS - Glioma",24.5 µM
same,EC50,"TCC-SUP, TCCSUP, Bladder",8.91 µM
same,GI50,"TCC-SUP, TCCSUP, Bladder, read-out: Cell Count GI50",8.67 µM
same,IC50,"TCC-SUP, TCCSUP, Bladder",8.91 µM
same,EC50,[5],23.6 µM
same,GI50,"TE 125.T, Soft Tissue - Sarcoma, read-out: Cell Count GI50",17 µM
same,IC50,[5],23.6 µM
same,EC50,[6],6.28 µM
same,GI50,"TE 381.T, Soft Tissue - Sarcoma, read-out: Cell Count GI50",6.08 µM
same,IC50,[6],6.28 µM
same,EC50,"TF-1, Leukemia",6.57 µM
same,GI50,"TF-1, Leukemia, read-out: Cell Count GI50",6.26 µM
same,IC50,"TF-1, Leukemia",6.57 µM
same,EC50,"THP-1, Thp1, Leukemia",12 µM
same,GI50,"THP-1, Thp1, Leukemia, read-out: Cell Count GI50",11.9 µM
same,IC50,"THP-1, Thp1, Leukemia",12 µM
same,EC50,"TUR, Lymphoma",8.98 µM
same,GI50,"TUR, Lymphoma, read-out: Cell Count GI50",8.98 µM
same,IC50,"TUR, Lymphoma",8.98 µM
same,EC50,[7],4.21 µM
same,GI50,"U2OS, Soft Tissue - Osteosarcoma, read-out: Cell Count GI50",4.2 µM
same,IC50,[7],4.21 µM
same,EC50,"U138-MG, U-138MG, CNS - Glioma",25 µM
same,GI50,"U138-MG, U-138MG, CNS - Glioma, read-out: Cell Count GI50",24.9 µM
same,IC50,"U138-MG, U-138MG, CNS - Glioma",25 µM
same,EC50,"U266B1, Myeloma",10.1 µM
same,GI50,"U266B1, Myeloma, read-out: Cell Count GI50",9.81 µM
same,IC50,"U266B1, Myeloma",10.1 µM
same,EC50,"U-87 MG, CNS - Glioma",13.8 µM
same,GI50,"U-87 MG, CNS - Glioma, read-out: Cell Count GI50",13.6 µM
same,IC50,"U-87 MG, CNS - Glioma",13.8 µM
same,EC50,[8],13.9 µM
same,GI50,"U-118-MG, U-118 MG, CNS - Glioma, read-out: Cell Count GI50",13.6 µM
same,IC50,[8],13.9 µM
same,EC50,"UMUC3, UM-UC-3, Bladder",3.83 µM
same,GI50,"UMUC3, UM-UC-3, Bladder, read-out: Cell Count GI50",3.82 µM
same,IC50,"UMUC3, UM-UC-3, Bladder",3.83 µM
same,EC50,[9],15.2 µM
same,GI50,"VA-ES-BJ, Soft Tissue - Sarcoma, read-out: Cell Count GI50",15 µM
same,IC50,[9],15.2 µM
same,EC50,[10],10.9 µM
same,GI50,"WM 266-4, WM-266-4, Skin (Melanoma), read-out: Cell Count GI50",10.8 µM
same,IC50,[10],10.9 µM
same,EC50,"WiDr, Colon",12.8 µM
same,GI50,"WiDr, Colon, read-out: Cell Count GI50",12.8 µM
same,IC50,"WiDr, Colon",12.8 µM
same,EC50,"Y79, Eye",5.65 µM
same,GI50,"Y79, Eye, read-out: Cell Count GI50",5.34 µM
same,IC50,"Y79, Eye",5.65 µM
same,EC50,"YAPC, Pancreas",18 µM
same,GI50,"YAPC, Pancreas, read-out: Cell Count GI50",18.2 µM
same,IC50,"YAPC, Pancreas",18.2 µM
same,GI50,"strong: Daudi, DOHH-2, GA-10, L-428, ST486, MX1, NALM-6, T47D, CEM-C1, A-673, read-out: GI50",1.23 to 2.92 µM
